Experimental data taken from patent US8153817B2, “Synthesis of methyl nonactate derivatives” (Ohio University, priority 2006, dated 2012).
In brackets after ≈: the same amount, converted by molar mass.

System: B. subtilis
Assay: MIC screen against B. subtilis
Type: cell-based
Details: Bacillus subtilis; B. subtilis (gram positive); read-out: MIC against B. subtilis
Method: In comparison ampicillin, which is an antibiotic in wide therapeutic use, has an MIC of 100 μM in this screen.

MIC [µM]	Structure (SMILES)
100 (≈ 34.9 µg/mL)	CC1(C)S[C@@H]2[C@H](NC(=O)[C@H](N)c3ccccc3)C(=O)N2[C@H]1C(=O)O [ampicillin, reference compound]

Same assay, conditions: Bacillus subtilis; Table 1, selected triazoloamides, B. subtilis; read-out: MIC

Structure (SMILES)	MIC [µM]
C[C@H](C(=O)NCCc1ccccc1)[C@@H]1CC[C@H](C[C@@H](C)n2cc(-c3ccccc3)nn2)O1	250 (≈ 108 µg/mL)
C[C@H](C(=O)N1CCN(c2ccccc2)CC1)[C@@H]1CC[C@H](C[C@@H](C)n2cc(CN3CCN(c4ccccc4)CC3)nn2)O1	4000 (≈ 2290 µg/mL)
C[C@H](C(=O)N1CCOCC1)[C@@H]1CC[C@H](C[C@@H](C)n2cc(CN3CCN(c4ccccc4)CC3)nn2)O1	2000 (≈ 993 µg/mL)
C[C@H](C(=O)N(C)C)[C@@H]1CC[C@H](C[C@@H](C)n2cc(-c3ccccc3)nn2)O1	4000 (≈ 1430 µg/mL)

More lines, now with the values ahead:

MIC [µM]	Structure (SMILES)
1000 (≈ 435 µg/mL)	COc1ccc(NC(=O)[C@@H](C)[C@@H]2CC[C@H](C[C@@H](C)n3cc(-c4ccccc4)nn3)O2)cc1
1000 (≈ 531 µg/mL)	C[C@@H](C(=O)N(C)Cc1ccccc1)[C@H]1CC[C@@H](C[C@H](C)n2cc(CN3CCN(c4ccccc4)CC3)nn2)O1
500 (≈ 251 µg/mL)	C[C@H](C(=O)Nc1ccccc1)[C@@H]1CC[C@H](C[C@@H](C)n2cc(CN3CCC(c4ccccc4)CC3)nn2)O1
1000 (≈ 546 µg/mL)	COc1ccc(CNC(=O)[C@@H](C)[C@@H]2CC[C@H](C[C@@H](C)n3cc(CN4CCC(c5ccccc5)CC4)nn3)O2)cc1
2000 (≈ 1020 µg/mL)	C[C@H](C(=O)NC1CCCCC1)[C@@H]1CC[C@H](C[C@@H](C)n2cc(CN3CCN(c4ccccc4)CC3)nn2)O1
2000 (≈ 989 µg/mL)	C[C@H](C(=O)NC1CCCC1)[C@@H]1CC[C@H](C[C@@H](C)n2cc(CN3CCN(c4ccccc4)CC3)nn2)O1
